Data published in patent publication US20170223976A1, “MODIFIED MILK POWDER CONTAINING 1,5-ANHYDRO-D-GLUCITOL” (NIHON STARCH CO., LTD., priority 2015, published 2017).

Legend:
CSH-1 gene = CSH-1 gene expression in placental trophoblastic cells, real-time RT-PCR; type: cell-based, human; conditions: 160 μg/mL 1,5-AG, after 72 hours
Protocol: The influence upon these two genes (PSG-1 and CSH-1) of 1,5-AG was analyzed by a real-time RT-PCR method using placental trophoblastic cells. As a preliminary study, the expression level of PSG-1 was analyzed at three concentrations (1 μg/mL or less, 40 μg/mL and 160 μg/mL of 1,5-AG) and for three sampling times (3, 24 and 72 hours). A test was conducted by the following method.
Human placental villous trophoblastic cells (ScienCell Research Laboratories)
The human placental villous trophoblastic cells were initiated in a T-75 flask by using a trophoblast medium (to be simply referred to as “medium” hereinafter) to be cultured in a CO2 incubator (5% CO2, 37° C., moistening). […] Then, the supernatant was removed by centrifugation (180 g, 5 minutes), a new medium was added to stir the cells, the number of the cells was counted by using a corpuscle calculating board, and a medium was used to achieve a target concentration (4.0×10^3 cells/100 μL). […]
The PCR reaction was carried out under the conditions of 95° C.·30 sec−(95° C.·10 sec−60° C.·30 sec)×45 cycles−95° C.·15 sec−55° C.·15 sec−95° C.·15 sec, and the dissociation curve of the PCR product was obtained after the end of the PCR reaction. The relative expression level was calculated by the ? […]

PSG-1 gene = PSG-1 gene expression in intestinal tract cells (Caco-2), real-time RT-PCR; type: cell-based; conditions: Caco-2 cells; for expression level of PSG-1 gene relative to non-added section: 3 days
Protocol: PSG-1 is a gene which is expressed in placental cells in large quantities in pregnancy. The influence of 1,5-AG upon the expression of PSG-1 in intestinal tract cells which is not connected with pregnancy was investigated.
A test was carried out at five concentrations (1.6, 8, 40, 200 and 1,000 μg/mL) of 1,5-AG. Stated more specifically, a 1,5-AG aqueous solution having a concentration of 100 mg/mL was diluted with water to prepare 100 times-concentrated solutions having concentrations of 0.16, 0.8, 4, 20 and 100 mg/mL. These 100 times-concentrated solutions were each added to a medium in a ratio of 1/100 to achieve final concentrations of […] and sterilized with a filter to be used in the test. As a negative control, water was added to a medium in a ratio of 1/100 and sterilized with a filter to be used in the test.
A medium was used to adjust Caco-2 cells to a concentration of 1×10^5 cells/0.3 mL/well, and the cells were scattered on a 48-well plate to be cultured in a CO2 incubator (5% CO2, 37° C.) for 14 days (medium was exchanged every other day). After culture, it was confirmed that the cells were differentiated into intestinal epidermoid cells, the medium was replaced by a sample-containing test medium and a control-containing test medium to culture the cells in a CO2 incubator for 3 days, and total RNA was extracted from the cells to analyze the expression level of PSG-1 gene. These procedures were repeated five times each.
Total RNA was extracted by using the FastLane Cell cDNA kit. […]
The synthesis of cDNA was carried out by using the QuantiTect reverse transcription kit. […]
Real-time PCT was carried out by an intercalator method using SYBR Green I. Stated more specifically, a total of an 8 μL system consisting of 1 μL of synthesized cDNA, 2.6 μL of dsH2O, 4 μL of SYBR Premix ExTag, 0.2 μL of Forward primer (5 μM) and 0.2 μL of Reverse primer (5 μM) was used. […] The relative expression level was calculated by the ? […]

Question: What does the source list for `OC[C@H]1OC[C@H](O)[C@@H](O)[C@@H]1O` [1,5-AG, 1,5-anhydro-D-glucitol]?
Answer: expression level of CSH-1 gene relative to non-added section (CSH-1 gene): 0.92 time; expression level of PSG-1 gene relative to non-added section (PSG-1 gene; 8 μg/mL): 1.31 times; expression level of PSG-1 gene relative to non-added section (PSG-1 gene; 40 μg/mL): 1.34 times; average expression level of PSG-1 gene versus non-added section (PSG-1 gene; 3 days, 1,5-AG added section): tends to become higher
